These results are taken from patent US10588985B2, “Compositions and methods relating to RAD6 inhibition” (Wayne State University, priority 2015, dated 2020).

The subject of data set [1] is MDA-MB-231 TNBC cells. Description: Cell survival assay (MTT or trypan blue). To be noted: Homo sapiens; MDA-MB-231 cells, 72 hours; for SMI #9-GNP based on the concentration of SMI #9. Here is the method:
(§1) MDA-MB-231, SUM-1315, MDA-MB-468, and HCC1937 TNBC cells (ATCC) were maintained in Dulbecco's Modified Eagle's Medium (DMEM)/F-12 supplemented with 5% fetal bovine serum. Nontransformed MCF10A human breast cells were maintained in DMEM/F12 supplemented with 5% horse serum, 20 ng/ml epidermal growth factor, 10 μg/ml insulin, 0.5 μg/ml hydrocortisone and 0.10 μg/ml cholera toxin. Sensitivity to SMI #9-GNP was assessed by trypan blue staining or MTT colorimetric assay. Briefly, cells were seeded in 96-well plates at a density of 5-7×10^3 cells per well and allowed to attach overnight. Cells were treated with free SMI #9, SMI #9-GNP, or blank-GNP at various concentrations in triplicates for 72 hours. In some cases, treatments included various doses of cisplatin singly or in combination with SMI #9-GNP. On the final day, medium was replaced with drug free medium, incubated with MTT at 37° C. for 2-3 hours. The medium and MTT were removed, and the MTT-formazan crystals dissolved in 200 μl of 0.04 N HCl/isopropanol, and absorbance measured at 570 nm using the Synergy 2 multi-well plate reader. Alternately, cultures were trypsinized and cell viability determined by trypan blue exclusion using the Biorad TC10 automatic cell counter. At least two to three independent experiments were performed for each cell line.

The subject of data set [2] is SUM1315 TNBC cells. The data set is described as follows: Cell survival assay (MTT or trypan blue). To be noted: 72 hours, for SMI #9-GNP based on the concentration of SMI #9. Here is the method: as §1
For data set [3], the system named is SUM1315 triple negative breast cancer cell derived tumors. The data set is described as follows: Orthotopic tumor growth assay. To be noted: SUM1315 xenografts, intraperitoneal injection at 5 mg/kg. Type of data set: in vivo, mice. Here is the method: MDA-MB-468 or SUM1315 triple negative breast cancer cells (1×10^6 cells suspended in 0.1 ml Matrigel) were injected subcutaneously into the fatpads of fourth and fifth inguinal mammary glands of female nude mice. […] Control vehicle or SMI #9 free drug was administered intratumorally whereas blank-GNP and SMI #9-GNP were administered intraperitoneally. Treatments were given every fourth day. Tumor volumes and body weights were measured twice a week and mice were monitored for weight loss, gastrointestinal distress, activity, body posture, and food/water intake. Mice were sacrificed at 35-44 days postimplantation. Tumors were harvested and weighed.

Data set [4] relates to LC3-I/LC3-II in MDA-MB-231 cells. Description: Western blot of LC3-I/II. Type of data set: cell-based. To be noted: 24 hours. Here is the method: (§2) Breast cancer cells treated with vehicle, free SMI #9, blank- or SMI #9-GNP (1-5 μM) for 24-96 hours were lysed, and aliquots of lysates containing 25 μg of protein were subjected to SDS-PAGE and western blot analysis of PARP-1 (Cell Signaling), Rad6, LC3-I/II (Cell Signaling), and […] (Sigma). To determine LC3 subcellular localization, control or SMI #9-GNP treated cells were fixed with methanol:acetone (1:1, v/v) and stained with anti-LC3 antibody. Slides were incubated with FITC-conjugated secondary antibody, counterstained with DAPI and analyzed by fluorescence microscopy.
(In general: A western blot detects proteins with antibodies after separation by electrophoresis.)

In data set [5] the test system is LC3-I/LC3-II in SUM1315 cells. The data set is described as follows: Western blot of LC3-I/II. In kind it is cell-based. To be noted: 24 h. Here is the method:
as §2

Data set [6] has as its system HCC1937 cells. The data set is described as follows: Mitochondrial membrane potential, JC-1 assay. Type of data set: cell-based. To be noted: overnight, 1 μM. Here is the method: (§3) The impact of free SMI #9 or SMI #9-GNP on mitochondrial membrane potential (Δψm) on SUM1315 and HCC1937 TNBC cells was assessed using JC-1 (Mitocapture, Biovision, Mountainview, Calif.), a potentiometric green fluorescent dye that shifts to red fluorescence within mitochondria with a normal negative […]. Briefly, cells were incubated with the MitoCapture reagent for 15 min at 37° C. and imaged by fluorescence microscopy as described in Shekhar M P et al., Cancer Biol Ther 2008; 7:1774-82.
(§4) The percent of cells showing punctate red fluorescence or diffuse green fluorescence were scored by counting three-five fields of 50-100 cells in each field. Each experiment was repeated at least three times and results expressed as mean±S.E. Statistical significance of differences was determined by Student's t test.

Data set [7] has as its system SUM1315 cells. The data set is described as follows: Mitochondrial membrane potential, JC-1 assay. In kind it is cell-based. Here is the method:
as §3, §4

Data set [8] deals with MDA-MB-468 or SUM1315 triple negative breast cancer cell derived tumors. The data set is described as follows: Orthotopic tumor growth assay, tumor line not given. In kind it is in vivo. To be noted: female nude mice, 1.5 mg/kg intratumorally every fourth day. Here is the method:
MDA-MB-468 or SUM1315 triple negative breast cancer cells (1×10^6 cells suspended in 0.1 ml Matrigel) were injected subcutaneously into the fatpads of fourth and fifth inguinal mammary glands of female nude mice. Mice were randomized and treatments with SMI #9-GNP (0.285 mg/kg body wt), SMI #9 free drug (1.5 mg/kg body wt.), blank-GNP (volumes equivalent to SMI #9-GNP), or vehicle control were initiated upon detection of palpable lesions. Control vehicle or SMI #9 free drug was administered intratumorally whereas blank-GNP and SMI #9-GNP were administered intraperitoneally. Treatments were given every fourth day. Tumor volumes and body weights were measured twice a week and mice were monitored for weight loss, gastrointestinal distress, activity, body posture, and food/water intake. Mice were sacrificed at 35-44 days postimplantation. Tumors were harvested and weighed.

In data set [9] the test system is PARP-1 in TNBC cells. Description: Western blot of PARP-1 steady-state levels. Type of data set: cell-based. To be noted: TNBC cell lines, 24 hours. Here is the method: as §2
Data set [10] in a line: in vivo. Set-up: species or system mice. To be noted: mouse, iv, 5 mg/kg. Here is the method:
To determine release of conjugated drugs and metabolic stability of GNP conjugates, mice were given a single i.v. injection of SMI #9-GNP at 5 mg/kg body wt. Blood samples were collected at 0, 5 min, 15 min, 30 min, 1 h, 2 h, 4 h, 8 h, and 24 h post-injection. Similarly, to assess the stability of SMI #9 as a free drug, a single i.v. injection of SMI #9 at 5 mg/kg was injected and blood samples collected. Concentrations of SMI #9 in plasma were determined by tandem LC-MS/MS and non-compartmental analysis with WinNonlin v5.2 (Pharsight).

For data set [11], the system named is HCC1937 TNBC cells. Description: Cell survival assay (MTT or trypan blue). Type of data set: cell-based. To be noted: Homo sapiens, 72 hours. Here is the method:
as §1

The test system of data set [12] is MDA-MB-468 TNBC cells. Description: Cell survival assay (MTT or trypan blue). To be noted: Homo sapiens; MDA-MB-468 cells, 72 hours. Type of data set: cell-based. Here is the method: as §1
For data set [13], the system named is nontransformed MCF10A human breast cells. The data set is described as follows: Cell survival assay (MTT or trypan blue). In kind it is cell-based. To be noted: 72 hours. Here is the method:
as §1

For the molecule `Nc1nc(COC(=O)c2ccc([N+](=O)[O-])cc2)nc(Nc2ccccc2)n1` [SMI #9], the GI50 (in general, the concentration that inhibits growth by half) is 5 µM in data set [1], 6 µM in data set [2], 1.8 µM in [11] and 3 µM in [12]. In addition, the tumor growth result in data set [3] is recorded as “no significant change in tumor growth”; in [8], “tumor growth inhibition compared to controls”. For the same molecule, the “LC3-I and LC3-II levels” value in data set [4] was “downregulated both LC3-I and LC3-II”. Also, the “changes in LC3-I processing” value in data set [5] is “not readily apparent”. For the same molecule, the “JC-1 punctate red fluorescence” value in data set [6] is “reduced the punctate red fluorescence staining”; in data set [7] (overnight, 1 μM), “reduced the punctate red fluorescence staining”. The mitochondrial integrities result in data set [7] was “similarly and dramatically compromised”. Further, the “PARP-1 processing / steady-state levels” value in data set [9] is given as “stabilization/hyperactivation of PARP-1”. Also, in data set [10], the peak level (Cmax) was 409 nM. For the same molecule, in [10], the time to peak (Tmax) (commonly the time from dosing to the highest level) was about 5 min. Moreover, the “sensitivity (growth inhibition)” value in [13] is given as “unaffected”.
